Source: PubChem BioAssay (NCI)
“And” between values parts separate entries of the source, which are not always exact repeats. Identical values can stand only once.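 Cells were grown in 96-well plates and exposed to each compound for 48 hours at five concentrations; endpoints were interpolated linearly between bracketing concentrations, or set to the highest concentration if not reached. At the GI50, growth is halved. TGI is the concentration that stops growth completely.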

Assays:
Assay in all cases: NCI-60 cell line screen, 48 h
[1] = system: UO-31 renal
[2] = system: SW-620 colon
[3] = system: A549 NSCLC
[4] = system: SN12C renal
[5] = system: HCT-15 colon
[6] = system: 786-0 renal
[7] = system: HCT-116 colon
[8] = system: COLO 205 colon
[9] = system: NCI-H522 lung
[10] = system: DU-145 prostate

In the case of `CCOC(=O)c1cccnc1C(OC(C)=O)OC(C)=O`, the TGI [1] is reported as > 100 µM, the TGI [2] is reported as > 100 µM and the TGI [3] is reported as > 100 µM. The TGI [4] was > 100 µM, the TGI [5] was > 100 µM and the TGI [6] was > 100 µM. The TGI [7] was > 100 µM, the TGI [8] was > 100 µM and the TGI [9] was > 100 µM.
With `CCOP1(=O)C=C(C)C(=C(Cl)Cl)C(C)=C1` (configuration not stated) the TGI [1] was 52.9 µM, the TGI [2] was 30.7 µM and the TGI [3] was 58.8 µM. For the same compound, the TGI [4] was > 100 µM, the TGI [5] was 36.9 µM and the TGI [6] was > 100 µM. The GI50 [7] was 3.33 µM, the TGI [7] was 7.13 µM and 13.3 µM and the TGI [8] was 29 µM. The GI50 [9] was 5.57 µM and the TGI [9] was 7.79 µM and 18.9 µM.
For `Cc1ccc(NC(=O)OCC(COc2ccc(Cl)cc2Cl)OC(=O)Nc2ccc(C)cc2)cc1` (configuration not stated), the TGI [1] was > 100 µM, the TGI [2] was > 100 µM and the TGI [3] was > 100 µM. For the same compound, the TGI [4] was > 100 µM, the TGI [5] was > 100 µM and the TGI [6] was > 100 µM. The TGI [7] was > 100 µM and the TGI [8] was > 100 µM.
For `CCN(CC)CCn1c2ccccc2c(=O)c2c(OC)ccc(OC)c21`, the TGI [1] was > 100 µM, the TGI [2] was > 100 µM and the TGI [3] was > 100 µM. The TGI [4] was > 100 µM, the TGI [5] was > 100 µM and the TGI [6] was > 100 µM. The TGI [7] was > 100 µM, the TGI [8] was > 100 µM and the TGI [9] was > 100 µM.
For `CC1CC[P+](c2ccccc2)(c2ccccc2)CC1`, the TGI [1] was > 100 µM, the TGI [2] was > 100 µM and the TGI [3] was > 100 µM. For the same compound, the TGI [4] was > 100 µM, the TGI [5] was > 100 µM and the TGI [6] was > 100 µM. For the same compound, the TGI [7] was > 100 µM, the TGI [8] was > 100 µM and the TGI [9] was > 100 µM.
For `CCOC1CC2OC(=O)C1C=C2C(=O)OC` (configuration not stated), the TGI [1] was > 100 µM, the TGI [2] was 61.1 µM and the TGI [3] was > 100 µM. For the same compound, the TGI [5] was > 100 µM, the TGI [6] was 75.9 µM and the TGI [8] was 37.2 µM. The TGI [9] was 28.1 µM.
For `COc1cc(/C=C2\C[C@H]3[C@@H]4CC=C5C[C@@H](OC(C)=O)CC[C@]5(C)[C@H]4CC[C@]3(C)[C@H]2OC(C)=O)ccc1OCCN1CCCC1`, the GI50 [1] was 13.1 µM, the TGI [1] was 28.9 µM and the GI50 [3] was 10.9 µM. It also gave a TGI [3] of 21.6 µM, a GI50 [4] of 7.79 µM and a TGI [4] of 15.7 µM. It also gave a GI50 [6] of 8.82 µM, a TGI [6] of 18.3 µM and a GI50 [10] of 1.3 µM. For the same compound, the TGI [10] was 9.69 µM, the GI50 [7] was 10.5 µM and the TGI [7] was 30.7 µM. The GI50 [8] was 13.3 µM, the TGI [8] was > 50 µM and the GI50 [9] was 18.1 µM. The TGI [9] was > 50 µM.
With `COc1ccc2nc(NC(=O)C(=O)NNC(=O)c3ccncc3)sc2c1` the TGI [1] was > 100 µM, the TGI [2] was > 100 µM and the TGI [3] was > 100 µM. The TGI [4] was > 100 µM, the TGI [5] was > 100 µM and the TGI [6] was > 100 µM. For the same compound, the TGI [7] was > 100 µM, the TGI [8] was > 100 µM and the TGI [9] was > 100 µM.
`C[Si](C)(C)C(Sc1ccccc1)(Sc1ccccc1)Sc1ccccc1` was tested, and the TGI [1] was > 100 µM, the TGI [2] was > 100 µM and the TGI [3] was > 100 µM. The TGI [4] was > 100 µM, the TGI [5] was > 100 µM and the TGI [6] was > 100 µM. For the same compound, the TGI [7] was > 100 µM and the TGI [8] was > 100 µM.
For `O=C1NC(c2cccc(OCc3ccccc3)c2)Nc2ccccc21` (configuration not stated), the TGI [1] was 55 µM, the TGI [2] was > 100 µM and the TGI [3] was > 49.6 µM. It also gave a TGI [4] of 30.5 µM, a TGI [5] of 0.702 µM and a TGI [6] of 38.8 µM. It also gave a TGI [7] of 1.93 µM, a TGI [8] of 2.64 µM and a TGI [9] of 0.636 µM.
In the case of `C1C[OH+]CC[OH+]CCNCC[OH+]CC[OH+]CCN1.Cl.[Cl-].[Pt+4]`, the GI50 [1] is reported as > 100 µM, the TGI [1] is reported as > 100 µM and the GI50 [2] is reported as > 100 µM. The TGI [2] was > 100 µM, the GI50 [3] was > 100 µM and the TGI [3] was > 100 µM. The GI50 [4] was > 100 µM, the TGI [4] was > 100 µM and the GI50 [5] was > 100 µM. For the same compound, the TGI [5] was > 100 µM, the GI50 [6] was > 100 µM and the TGI [6] was > 100 µM. For the same compound, the GI50 [7] was > 100 µM, the TGI [7] was > 100 µM and the GI50 [8] was > 100 µM. The TGI [8] was > 100 µM, the GI50 [9] was 2.27 µM and the TGI [9] was 6.47 µM.
Compound `CN1CCN(Cc2cc(NC(=O)c3cccc(C#Cc4cccc5[nH]nc(N)c45)c3)cc(C(F)(F)F)c2)CC1` has a GI50 [1] of 1.71 µM, a TGI [1] of 3.16 µM and a GI50 [2] of 1.5 µM. It also gave a TGI [2] of 2.89 µM, a GI50 [3] of 1.83 µM and a TGI [3] of 3.28 µM. It also gave a GI50 [4] of 1.66 µM, a TGI [4] of 3.13 µM and a GI50 [5] of 1.81 µM. For the same compound, the TGI [5] was 3.37 µM, the GI50 [6] was 1.91 µM and the TGI [6] was 3.39 µM. It also gave a GI50 [10] of 1.7 µM, a TGI [10] of 3.07 µM and a GI50 [8] of 1.53 µM. For the same compound, the TGI [8] was 2.98 µM, the GI50 [9] was 1.74 µM and the TGI [9] was 3.34 µM.
`Cn1cnc([N+](=O)[O-])c1Sc1nccc(=O)[nH]1` was tested, and the TGI [1] was > 100 µM, the TGI [2] was > 100 µM and the TGI [3] was > 100 µM. For the same compound, the TGI [4] was > 100 µM, the TGI [6] was > 100 µM and the TGI [7] was > 100 µM. The TGI [8] was > 100 µM and the TGI [9] was > 100 µM.
With `CCOC(=O)C(=O)Nc1ccccc1C(C)C` the TGI [1] was > 100 µM, the TGI [2] was > 100 µM and the TGI [3] was > 100 µM. The TGI [4] was > 100 µM, the TGI [5] was > 100 µM and the TGI [6] was > 100 µM. The TGI [7] was > 100 µM, the TGI [8] was > 100 µM and the TGI [9] was > 100 µM.
In the case of `C[C@@H](Oc1cc(-n2cnc3ccc(OC[C@@H](O)CO)cc32)sc1C(N)=O)c1ccccc1Cl`, the GI50 [1] is reported as 8.39 µM, the TGI [1] is reported as > 25 µM and the GI50 [2] is reported as 0.0633 µM. The TGI [2] was > 25 µM, the GI50 [3] was 0.889 µM and the TGI [3] was > 25 µM. The GI50 [4] was 1.08 µM, the TGI [4] was > 25 µM and the GI50 [5] was 1.88 µM. For the same compound, the TGI [5] was > 25 µM, the GI50 [6] was 0.669 µM and the TGI [6] was > 25 µM. The GI50 [7] was 0.116 µM, the TGI [7] was > 25 µM and the GI50 [8] was 0.0743 µM. The TGI [8] was > 25 µM.
With `CCCCCCCCCCCCCB(O)O` the GI50 [1] was > 100 µM and 27.5 µM, the TGI [1] was > 100 µM and the TGI [2] was > 100 µM. For the same compound, the GI50 [3] was > 100 µM and 48.5 µM, the TGI [3] was > 100 µM and the TGI [4] was > 100 µM. The GI50 [5] was > 100 µM and 49.3 µM, the TGI [5] was > 100 µM and the TGI [6] was > 100 µM. For the same compound, the GI50 [7] was > 100 µM and 47.8 µM, the TGI [7] was > 100 µM and the TGI [8] was > 100 µM. For the same compound, the TGI [9] was > 100 µM.
With `COC(=O)C(/C(=N\NC(N)=S)C(=O)Nc1ccccc1[N+](=O)[O-])c1cnc2ccccc2n1` (configuration not stated) the TGI [1] was > 100 µM, the TGI [2] was > 100 µM and the TGI [3] was > 100 µM. The TGI [4] was > 100 µM, the TGI [5] was > 100 µM and the TGI [6] was > 100 µM. The TGI [7] was > 100 µM, the TGI [8] was > 100 µM and the TGI [9] was > 100 µM.
For `C=CCN(N=O)C(=O)NCCCCC(NC(C)=O)C(=O)NCc1ccccc1` (configuration not stated), the TGI [1] was > 100 µM, the TGI [2] was > 100 µM and the TGI [3] was > 100 µM. For the same compound, the TGI [4] was > 100 µM, the TGI [5] was > 100 µM and the TGI [6] was > 100 µM. For the same compound, the TGI [8] was > 100 µM and the TGI [9] was > 100 µM.
In the case of `Cc1ccccc1C1CC(c2ccccc2)=NO1` (configuration not stated), the TGI [1] is reported as > 100 µM, the TGI [2] is reported as > 100 µM and the TGI [3] is reported as > 100 µM. For the same compound, the TGI [4] was > 100 µM, the TGI [5] was > 100 µM and the TGI [6] was > 100 µM. The TGI [7] was > 100 µM, the TGI [8] was > 100 µM and the TGI [9] was > 100 µM.
With `C=C(CCCO)[C@@H]1CC[C@@](C)(O)[C@H]1C` the TGI [1] was > 100 µM, the TGI [2] was > 100 µM and the TGI [3] was > 100 µM. The TGI [4] was > 100 µM, the TGI [5] was > 100 µM and the TGI [6] was > 100 µM. For the same compound, the TGI [7] was > 100 µM, the TGI [8] was > 100 µM and the TGI [9] was > 100 µM.
